From patent US8703106B2, “Chlorine dioxide treatment for biological tissue” (priority 2009, dated 2014)

Key:
bacteria in wounds = experiment: Pig wound model, chlorine dioxide with sonication (Example 5); assay type: in vivo; details: 400 ppm solution, 8 x 15 min, plus three 4 min sonications at about 20 kHz, 40% duty cycle
Procedure: An experiment was performed to assess the efficacy of a combination therapy of chlorine dioxide administration and sonication on bacterial levels in wounds. The animal model was a pig. Sixteen wounds were introduced and inoculated with bacteria as described in Example 6. On Day 2, treatment was administered. There were control wounds that were not treated with either chlorine dioxide or ultrasound. Test wounds were treated with ultrasonic energy for 4 minutes, using a frequency of about 20 kHz, a 40% duty cycle and a range of power intensities up to 3.5 W/cm^2; each test wound received a total of three sonication treatments. Test wounds were treated with a 400 ppm chlorine dioxide solution applied to each wound in 8 separate, contiguous applications of 15 minutes duration each (total of 120 minutes of exposure to 400 ppm chlorine dioxide) and each application used a fresh specimen of the solution. Each treated wound received a total of three×4 minute sonication over the course of the 2 hours of chlorine dioxide treatment.
Wounds were biopsied after treatment as described in Example 4.

mixed PA/MRSA biofilm = experiment: Biofilm kill on ceramic disks, clean system (Example 1); assay type: cell-based, Pseudomonas aeruginosa and Staphylococcus aureus; details: for Log Reduction in Organism Count: MRSA + PA, total bacteria
Procedure: (§1) A series of experiments were conducted to estimate the dosage of chlorine dioxide needed to kill bacterial biofilms consisting of Pseudomonas acruginosa (PA), methicillin resistant Staphylococcus aureus (MRSA), or a combination of both.
(§2) Bacterial biofilms were grown for between 7 and 10 days on non-porous ceramic disks in a spinning disk biofilm reactor. The reactors were inoculated with PA, MRSA, or a mixture of MRSA and PA bacteria to produce PA, MRSA, or mixed PA/MRSA biofilms respectively.
(§3) Chlorine dioxide solutions were produced at different nominal concentrations using ASEPTROL S-Tab10 tablets, and the exact concentrations were then measured using a Hach Model 2400 UV/Vis spectrophotometer in accordance with the manufacturer's instructions. Pairs of biofilm-containing disks were immersed for different times in solutions of different chlorine dioxide concentrations, neutralized with dilute sodium thiosul fate solution, and then plated to determine the number of surviving bacteria on each disk. Two untreated disks were also exposed to neutralizing solution and plated to determine the starting bacterial counts. In all tests, the baseline bacterial counts were in the range of 10^7 to 10^7.5 colony-forming units per disk (cfu/disk). A one log reduction refers to reducing the cfu/disk by one order of magnitude, e.g., a reduction from 10^7.1 cfu/disk to 10^6.1 cfu/disk. Accordingly, a substantially complete kill is achieved in the example if the log reduction of bacteria is about 7 to 7.5.
(§4) The results are presented in terms of log reduction of the different bacterial organisms. In the case of mixed PA/MRSA biofilms, results are given as total bacteria.

PA biofilm = experiment: Biofilm kill in protein-rich (FBS) environment (Example 3); assay type: cell-based, Pseudomonas aeruginosa; details: for Log Reduction in Organism Count: PA
Procedure: Chlorine dioxide efficacy against biofilm in protein-rich environment A series of experiments were conducted to determine the effect of FBS on the kill of PA. MRSA and mixture PA/MRSA biofilms. Biofilms were grown as described in Example 1, Disks were immersed in 25 ml of FBS solution at double the target FBS concentration, and to that was added 25 ml of chlorine dioxide solution at double the target chlorine dioxide concentration. After the desired contact time, disks were removed from the treatment solutions, neutralized, and plated as described above.
Dosage is given both as the nominal dose based upon the initial chlorine dioxide concentration, and the actual dosage as estimated from the initial chlorine dioxide concentration and the decay relationships described above.
Columns 3-6 are measured data; columns 7-11 are calculated data. For K2 having a positive sign (such as Samples 20-21), it was assumed that there was insufficient FBS present to cause a material loss of chlorine dioxide. Therefore, for such samples, it was assumed that chlorine dioxide was unchanged over the time of the experiment FIG. 4 is a graph of the results.

[1] = tested on: Pseudomonas aeruginosa (PA) biofilm; experiment: Biofilm kill on ceramic disks, clean system (Example 1); assay type: cell-based; details: for Log Reduction in Organism Count: PA
Procedure: as §1, §2, §3, §4

[2] = tested on: methicillin resistant Staphylococcus aureus (MRSA) biofilm; experiment: as above; assay type: cell-based; details: for Log Reduction in Organism Count: MRSA
Procedure: as §1, §2, §3, §4

## [O][Cl+][O-] [ClO2, chlorine dioxide]
Bacteria in wounds; as a function of power intensity up to 3.5 W/cm^2
  bacterial counts in test wounds: decrease significantly (multiple log reductions)
Bacteria in wounds; at 3.5 W/cm^2
  bacterial kill in test wounds: substantially complete log kill
Mixed PA/MRSA biofilm; Sample 12, 10.0 min, 52 ppm ClO2, 520 ppm-min
  Log Reduction in Organism Count: 5.5 log
Mixed PA/MRSA biofilm; Sample 13, 30.0 min, 52 ppm ClO2, 1560 ppm-min
  Log Reduction in Organism Count: 7.4 log
Mixed PA/MRSA biofilm; Sample 14, 1.0 min, 181 ppm ClO2, 181 ppm-min
  Log Reduction in Organism Count: 5.1 log
Mixed PA/MRSA biofilm; Sample 15, 5.0 min, 160 ppm ClO2, 800 ppm-min
  Log Reduction in Organism Count: 7.4 log
Mixed PA/MRSA biofilm; Sample 16, 30.0 min, 160 ppm ClO2, 4800 ppm-min
  Log Reduction in Organism Count: 7.4 log
Mixed PA/MRSA biofilm; mixed PA/MRSA biofilm, clean system (Sample 12)
  dosage achieving a kill of about 5 orders of magnitude (5 log): greater than 200 ppm-min
PA biofilm; PA biofilm, with FBS
  corrected dose rate resulting in complete kill: ≥ 2000 ppm-rain
PA biofilm; Sample 27, FBS 131 mg/mg ClO2, 15.0 min, initial 191 ppm, nominal 2865, corrected 2236 ppm-min
  Log Reduction in Organism Count: 7.1 log
PA biofilm; Sample 28, FBS 131 mg/mg ClO2, 40.0 min, initial 191 ppm, nominal 7640, corrected 5559 ppm-min
  Log Reduction in Organism Count: 7.1 log
PA biofilm; Sample 29, FBS 104 mg/mg ClO2, 15.0 min, initial 240 ppm, nominal and corrected 3600 ppm-min
  Log Reduction in Organism Count: 7.1 log
PA biofilm; Sample 30, FBS 104 mg/mg ClO2, 30.0 min, initial 240 ppm, nominal and corrected 7200 ppm-min
  Log Reduction in Organism Count: 7.1 log
PA biofilm; Sample 31, FBS 104 mg/mg ClO2, 60.0 min, initial 240 ppm, nominal and corrected 14400 ppm-min
  Log Reduction in Organism Count: 7.1 log
[1]; PA biofilm, clean system (Sample 7)
  dosage achieving a kill of about 5 orders of magnitude (5 log): greater than 200 ppm-min
[1]; Sample 6, 0.5 min, 200 ppm ClO2, 100 ppm-min
  Log Reduction in Organism Count: 5.9 log
[1]; Sample 7, 5.0 min, 43 ppm ClO2, […]-min
  Log Reduction in Organism Count: 5.7 log
[1]; Sample 8, 5.0 min, 187 ppm ClO2, 935 ppm-min
  Log Reduction in Organism Count: 7.5 log
[1]; Sample 9, 10.0 min, 37 ppm ClO2, 370 ppm-min
  Log Reduction in Organism Count: 7.5 log
[1]; Sample 10, 50.0 min, 35 ppm ClO2, 1750 ppm-min
  Log Reduction in Organism Count: 7.5 log
[1]; Sample 11, 50.0 min, 166 ppm ClO2, 8300 ppm-min
  Log Reduction in Organism Count: 7.5 log
[2]; MRSA biofilm, clean system (Sample 1)
  dosage achieving a kill of about 5 orders of magnitude (5 log): greater than 200 ppm-min
[2]; Sample 1, 1.0 min, 208 ppm ClO2, 208 ppm-min
  Log Reduction in Organism Count: 5.5 log
[2]; Sample 2, 5.0 min, 204 ppm ClO2, 1020 ppm-min
  Log Reduction in Organism Count: 7.1 log
[2]; Sample 3 (second line), 30.0 min, 40 ppm ClO2, 1200 ppm-min
  Log Reduction in Organism Count: 5.1 log
[2]; Sample 3, 10.0 min, 45 ppm ClO2, 450 ppm-min
  Log Reduction in Organism Count: 5.5 log
[2]; Sample 4, 30.0 min, 175 ppm ClO2, 5250 ppm-min
  Log Reduction in Organism Count: 7.1 log
